Experimental data: ChEMBL document CHEMBL5053500, “Nitric Oxide Induction in Peritoneal Macrophages by a 1,2,3-Triazole Derivative Improves Its Efficacy upon Leishmania amazonensis In Vitro Infection” (J Med Chem, 2021)
The source made the active and inactive calls. The calls are words filed in the database; no cut-off is given here.

What was measured:
Leishmania amazonensis [1] = assay: Induction of morphological changes in Leishmania amazonensis (MHOM/BR/76/MA-76) promastigotes assessed as kinetoplast swelling at IC50 incubated for 24 hrs by transmission electron microscopy analysis; assay type: functional, organism-based
[2] = Upregulation of iNOS mRNA expression in BALB/c mouse peritoneal macrophages at 50 uM measured after 48 hrs by qRT-PCR analysis relative to control; assay type: functional, Peritoneal macrophage
[3] = Cytotoxicity against BALB/c mouse peritoneal macrophages assessed as reduction in cell viability incubated for 24 hrs by MTT assay; assay type: cell-based, Peritoneal macrophage
[4] = Cytotoxicity against human CCD-1072Sk cells assessed as reduction in cell viability at <400 uM measured after 24 hrs by MTT assay; assay type: cell-based
Leishmania amazonensis [5] = assay: Induction of morphological changes in Leishmania amazonensis (MHOM/BR/76/MA-76) promastigotes assessed as formation of membrane profiles near the flagellar pocket at IC50 incubated for 24 hrs by transmission electron microscopy analysis; assay type: functional, organism-based
Leishmania amazonensis [6] = assay: Induction of morphological changes in Leishmania amazonensis (MHOM/BR/76/MA-76) promastigotes assessed as lipid inclusions at IC50 incubated for 24 hrs by transmission electron microscopy analysis; assay type: functional, organism-based
Peritoneal macrophage [7] = assay: Induction of NO production in BALB/C mouse peritoneal macrophages assessed as nitrite levels at 50 uM measured after 48 hrs by Griess reagent based assay (Rvb= 3.22 +/- 0.570 uM); assay type: functional
Leishmania amazonensis [8] = assay: (§1) Antileishmanial activity against Leishmania amazonensis (MHOM/BR/76/MA-76) intracellular amastigotes infected in BALB/c mouse peritoneal macrophages assessed as percentage of infected cells at 15.52 uM pretreated with 1400W for 1 hr followed by test compound addition measured after 24 hrs by Giemsa's azur-eosin-methylene blue staining based light microscopy analysis; assay type: functional, Peritoneal macrophage
Leishmania amazonensis [9] = assay: as §1, with “number” for “percentage”, “amastigotes per cell” for “infected cells”, “uM” for “uM pretreated with 1400W for 1 hr followed by test compound addition”; assay type: functional, Peritoneal macrophage
[10] = Selectivity index, ratio of CC50 for cytotoxicity against BALB/c mouse peritoneal macrophage to IC50 for antileishmanial activity against Leishmania amazonensis (MHOM/BR/76/MA-76) intracellular amastigotes infected in BALB/c mouse peritoneal macrophages; assay type: toxicity, cell-based; settings: read-out: Ratio CC50/IC50
Peritoneal macrophage [11] = assay: Cytotoxicity against BALB/C mouse peritoneal macrophages assessed as reduction in cell viability at 100 uM measured after 24 hrs by MTT assay relative to control; assay type: cell-based
Leishmania amazonensis [12] = assay: as §1, with “as number” for “as percentage”, “of amastigotes per 100” for “of infected”; assay type: functional, Peritoneal macrophage
Peritoneal macrophage [13] = assay: Upregulation of IL-12 mRNA expression in BALB/c mouse peritoneal macrophages stimulated with Leishmania amazonensis at 50 uM measured after 48 hrs by qRT-PCR analysis; assay type: functional, tissue-based
[14] = Upregulation of iNOS mRNA expression in BALB/c mouse peritoneal macrophages stimulated with Leishmania amazonensis at 50 uM measured after 48 hrs by qRT-PCR analysis; assay type: functional, Peritoneal macrophage
Leishmania amazonensis [15] = assay: as §1, with “number” for “percentage”, “amastigotes per cell” for “infected cells”; assay type: functional, Peritoneal macrophage
Leishmania amazonensis [16] = assay: as §1, with “as number” for “as percentage”, “of amastigotes per 100” for “of infected”, “uM” for “uM pretreated with 1400W for 1 hr followed by test compound addition”; assay type: functional, Peritoneal macrophage
Leishmania amazonensis [17] = assay: Antileishmanial activity against Leishmania amazonensis (MHOM/BR/76/MA-76) promastigotes assessed as upward shift in concentration response curves of parasite viability incubated for 24 hrs by MTT assay; assay type: functional, organism-based
Leishmania amazonensis [18] = assay: (§2) Antileishmanial activity against Leishmania amazonensis (MHOM/BR/76/MA-76) intracellular amastigotes infected in BALB/c mouse peritoneal macrophages assessed as low amastigote mean at 5 to 40 uM incubated for 24 hrs by Giemsa's azur-eosin-methyle blue staining based light microscopy analysis; assay type: functional, organism-based; settings: Peritoneal macrophage, dose 5-40 µM
[19] = Inhibition of iNOS expression in BALB/c mouse peritoneal macrophages assessed as decrease in LPS induced nitrite levels at 50 uM pretreated with 1400W for 1 hr followed by LPS stimulation further treated with test compound and measured after 48 hrs by Griess reagent based assay (Rvb= 4.27 +/- 0.432 uM); assay type: functional, Peritoneal macrophage
Leishmania amazonensis [20] = assay: Antileishmanial activity against Leishmania amazonensis (MHOM/BR/76/MA-76) intracellular amastigotes infected in BALB/c mouse peritoneal macrophages assessed as reduction in parasite growth incubated for 24 hrs by Giemsa's azur-eosin-methyle blue staining based light microscopy analysis; assay type: functional, organism-based; settings: MHOM/BR/76/MA-76, Peritoneal macrophage
Peritoneal macrophage [21] = assay: Upregulation of IL-1beta mRNA expression in BALB/c mouse peritoneal macrophages stimulated with Leishmania amazonensis at 50 uM measured after 48 hrs by qRT-PCR analysis; assay type: functional, tissue-based
Peritoneal macrophage [22] = assay: Induction of NO production in BALB/C mouse peritoneal macrophages assessed as nitrite levels at 100 uM measured after 48 hrs by Griess reagent based assay (Rvb= 3.22 +/- 0.570 uM); assay type: functional
Leishmania amazonensis [23] = assay: Antileishmanial activity against Leishmania amazonensis (MHOM/BR/76/MA-76) intracellular amastigotes infected in BALB/c mouse peritoneal macrophages assessed as upward shift in concentration response curves of parasite viability incubated for 24 hrs by Giemsa's azur-eosin-methyle blue staining based light microscopy analysis; assay type: functional, organism-based; settings: Peritoneal macrophage
Leishmania amazonensis [24] = assay: Antileishmanial activity against Leishmania amazonensis (MHOM/BR/76/MA-76) promastigotes assessed as reduction in parasite growth incubated for 24 hrs by MTT assay; assay type: functional, organism-based; settings: MHOM/BR/76/MA-76, 24 h
Peritoneal macrophage [25] = assay: Upregulation of IL-6 mRNA expression in BALB/c mouse peritoneal macrophages stimulated with Leishmania amazonensis at 50 uM measured after 48 hrs by qRT-PCR analysis; assay type: functional, tissue-based
Leishmania amazonensis [26] = assay: Induction of morphological changes in Leishmania amazonensis (MHOM/BR/76/MA-76) promastigotes assessed as formation of small vesicles surrounded by a membrane in cytoplasm at IC50 incubated for 24 hrs by transmission electron microscopy analysis; assay type: functional, organism-based
Leishmania amazonensis [27] = assay: as §1, with “uM” for “uM pretreated with 1400W for 1 hr followed by test compound addition”; assay type: functional, Peritoneal macrophage
Peritoneal macrophage [28] = assay: Upregulation of IL-10 mRNA expression in BALB/c mouse peritoneal macrophages stimulated with Leishmania amazonensis at 50 uM measured after 48 hrs by qRT-PCR analysis; assay type: functional, tissue-based
Peritoneal macrophage [29] = assay: Upregulation of TNF-alpha mRNA expression in BALB/c mouse peritoneal macrophages stimulated with Leishmania amazonensis at 50 uM measured after 48 hrs by qRT-PCR analysis; assay type: functional, tissue-based
Leishmania amazonensis [30] = assay: as §2, with “decrease in number of amastigotes per 100 cells” for “low amastigote mean”, “10” for “5”; assay type: functional, organism-based; settings: Peritoneal macrophage, dose 10-40 µM
Leishmania amazonensis [31] = assay: as §2, with “decrease in number of amastigotes per infected cells” for “low amastigote mean”, “20” for “5”; assay type: functional, organism-based; settings: Peritoneal macrophage, dose 20-40 µM
[32] = Inhibition of iNOS expression in BALB/C mouse peritoneal macrophages stimulated with Leishmania amazonensis assessed as decrease in nitrite levels at 50 uM pretreated with 1400W for 1 hr followed by parasite stimulation and measured after 48 hrs by Griess reagent based assay (Rvb= 2.60 +/- -.236 uM); assay type: functional, Peritoneal macrophage
[33] = Selectivity index, ratio of CC50 for cytotoxicity against BALB/c mouse peritoneal macrophages to IC50 for antileishmanial activity against Leishmania amazonensis (MHOM/BR/76/MA-76) promastigotes; assay type: toxicity; settings: read-out: Ratio CC50/IC50
[34] = Selectivity ratio of IC50 for antileishmanial activity against Leishmania amazonensis (MHOM/BR/76/MA-76) promastigotes to IC50 for antileishmanial activity against Leishmania amazonensis (MHOM/BR/76/MA-76) intracellular amastigotes infected in BALB/c mouse peritoneal macrophages; assay type: functional
Peritoneal macrophage [35] = assay: Induction of NO production in BALB/C mouse peritoneal macrophages infected with Leishmania amazonensis assessed as nitrite levels at 50 uM measured after 48 hrs by Griess reagent based assay (Rvb= 4.11 +/- 0.156 uM); assay type: functional
Leishmania amazonensis [36] = assay: as §2, with “decrease in number of amastigotes per infected cells” for “low amastigote mean”, “up” for “5”; assay type: functional, organism-based; settings: Peritoneal macrophage
Leishmania amazonensis [37] = assay: (§3) Antileishmanial activity against Leishmania amazonensis (MHOM/BR/76/MA-76) intracellular amastigotes infected in BALB/c mouse peritoneal macrophages assessed as low amastigote mean at 40 uM incubated for 24 hrs by Giemsa's azur-eosin-methyle blue staining based light microscopy analysis; assay type: functional, organism-based; settings: Peritoneal macrophage
Leishmania amazonensis [38] = assay: as §3, with “decrease in number of amastigotes per 100 cells” for “low amastigote mean”; assay type: functional, organism-based; settings: Peritoneal macrophage
[39] = Inhibition of iNOS expression in BALB/c mouse peritoneal macrophages stimulated with Leishmania amazonensis assessed as decrease in nitrite levels at 200 nM pretreated for 1 hr followed by parasite stimulation and measured after 48 hrs by Griess reagent based assay; assay type: functional, Peritoneal macrophage; settings: time 49 hrs

OC(c1ccc(Br)cc1)c1cn(-c2ccc(Br)cc2)nn1 (stereo unspecified)
Activity (Leishmania amazonensis [1]): Active | fold change (FC) [2]: 12.28 | CC50 at 24 h [3]: 84 µM | Activity [4]: Non-Toxic | Activity (Leishmania amazonensis [5]): Active | Activity (Leishmania amazonensis [6]): Active | Activity (Peritoneal macrophage [7]): 4.63 µM | Activity (Leishmania amazonensis [8]): 79.6 | Activity (Leishmania amazonensis [9]): 2.86 | selectivity ratio [10]: 20.5 | Activity (Peritoneal macrophage [11]): 65.79% | Activity (Leishmania amazonensis [12]): 288.25 | Activity (Peritoneal macrophage [13]): inactive | fold change (FC) [14]: 24.47 | Activity (Leishmania amazonensis [15]): 3.68 | Activity (Leishmania amazonensis [16]): 169.38 | Activity (Leishmania amazonensis [17]): Active | Activity (Leishmania amazonensis [18]): Active | Activity [19]: 2.65 µM | IC50 (Leishmania amazonensis [20]): 4.1 µM | Activity (Peritoneal macrophage [21]): Active | Activity (Peritoneal macrophage [22]): 4.34 µM | Activity (Leishmania amazonensis [23]): Active | IC50 (Leishmania amazonensis [24]): 15.5 µM | Activity (Peritoneal macrophage [25]): inactive | Activity (Leishmania amazonensis [26]): Active | Activity (Leishmania amazonensis [27]): 55.6 | Activity (Peritoneal macrophage [28]): inactive | Activity (Peritoneal macrophage [29]): Active | Activity (Leishmania amazonensis [30]): Active | Activity (Leishmania amazonensis [31]): Active | Activity [32]: 3.06 µM | selectivity ratio [33]: 5.41 | Ratio IC50 [34]: 3.7 | Activity (Peritoneal macrophage [35]): 9.37 µM

O=[N+]([O-])c1ccccc1C(O)c1cn(-c2ccc(Br)cc2)nn1 (stereo unspecified)
CC50 at 24 h [3]: > 400 µM | Activity [4]: Non-Toxic | IC50 (Leishmania amazonensis [24]): 190 µM | selectivity ratio [33]: > 2.1

COC(=O)c1ccc(-n2cc(C(O)c3ccccc3Br)nn2)cc1 (stereo unspecified)
CC50 at 24 h [3]: 297 µM | Activity [4]: Non-Toxic | Activity (Leishmania amazonensis [5]): Active | Activity (Leishmania amazonensis [36]): inactive | Activity (Leishmania amazonensis [6]): Active | selectivity ratio [10]: 8.03 | Activity (Leishmania amazonensis [17]): Active | Activity (Leishmania amazonensis [37]): Active | IC50 (Leishmania amazonensis [20]): 37 µM | Activity (Leishmania amazonensis [23]): Active | IC50 (Leishmania amazonensis [24]): 27.8 µM | Activity (Leishmania amazonensis [26]): Active | selectivity ratio [33]: 10.7 | Activity (Leishmania amazonensis [38]): Active

OC(c1ccc(Br)cc1)c1cn(-c2ccc(F)cc2)nn1 (stereo unspecified)
CC50 at 24 h [3]: 182 µM | Activity [4]: Non-Toxic | IC50 (Leishmania amazonensis [24]): 45.6 µM | selectivity ratio [33]: 4

O=c1ccc2cc(-n3cc(C(O)c4ccccc4-c4ccccc4)nn3)ccc2o1 (stereo unspecified)
CC50 at 24 h [3]: 141 µM | Activity [4]: Non-Toxic | IC50 (Leishmania amazonensis [24]): > 200 µM | selectivity ratio [33]: < 0.7

CC(=O)c1ccc(-n2cc(C(O)c3ccccc3-c3ccccc3)nn2)cc1 (stereo unspecified)
CC50 at 24 h [3]: 234 µM | Activity [4]: Non-Toxic | IC50 (Leishmania amazonensis [24]): 56.6 µM | selectivity ratio [33]: 4.12

CC(=N)NCc1cccc(CN)c1.Cl.Cl
Activity [39]: 2.06 µM
